# Results published in patent publication US7582655B2, “Antineoplastic compounds” (University of Saskatchewan, priority 2005, dated 2009).
# pIC50: −log10 of the molar value. Read-outs that look alike come from different tables or passages of the source.
# Key:
# mice = conditions: five consecutive daily doses of 240 mg/kg; cited from earlier work
# [1] = tested on: murine lymphocytic leukemia P388/MRI cell line; conditions: cited from earlier work
# [2] = tested on: synthetic DNA, poly(d(AT)); conditions: cited from earlier work
# [3] = tested on: murine L-5178 lymphoma cells transfected with the human MDR1 gene; test: MDR reversal, rhodamine 123 fluorescence activity ratio; conditions: FAR >1 indicates MDR reversal; for FAR value 4 μg/ml: compound 4 μg/ml; for FAR value 40 μg/ml: compound 40 μg/ml
# Procedure: A solution of the test compound (2 mg/ml, 10 μl) in dimethylsulfoxide was added to aliquots of the cell suspension and incubated at room temperature for 10 minutes. […] The cells were washed twice and resuspended in PBS (pH 7.4) after which the fluorescence was measured using a Beckton Dickinson FACScan instrument. The fluorescence of the cells was measured in treated MDR cells (F1), untreated MDR cells (F2), treated parental cells (F3) […] were obtained from the following equation, viz (F1/F2)/(F3/F4).
# [4] = tested on: human squamous cell carcinomas HSC-2; test: Cytotoxicity CC50, MTT assay, HSC-2
# Procedure: (§1) In addition, the compounds were evaluated against human squamous cell carcinomas (HSC-2 and HSC-4) and human promyelocytic leukemia neoplasms (HL-60) and compared with normal cells, i.e. human gingival fibroblasts (HGF), human pulp cells (HPC) and human periodontal ligament fibroblasts (HPLF).
# (§2) MTT stands for 3-(4,5-dimethylthiazol-2-yl)-2,5-diphenyltetrazolium bromide). The cells were incubated with varying concentrations of the compounds along with untreated cells for 24 h and the absorbance at 540 nm measured. In the case of the HL-60 assay, the trypan blue exclusion method was followed and cell viability was determined using a haemocytometer. The CC50 values were obtained from dose-response curves (Sakagami, H.; Satoh, K.; Ohata, H.; Takahashi, H.; Yoshida, H.; Iida, M.; Kuribayashi, N.; Sakagami, T.; Momose, K.; Takeda, M. Anticancer Res. 1996, 16, 2635-2644). The general methods used in culturing the cells employed in these cytotoxicity experiments have been described previously (Kawase, M.; Sakagami, H.; Motohashi, N.; Hauer, H.; Chatterjee, S. S.; Spengler, G.; Vigyikanne, A. V.; Molnár, A.; Molnár, J. In Vivo 2005, 19, 705-712; and Takeuchi, R.; Hoshijima, H.; Onuki, N.; Nagasaka, H.; Chowdhury, S. A.; Kawase, M.; Sakagami, H. Anticancer Res. 2005, 25, 4037-4042). In brief, the malignant cells were obtained from Professor Nagumo, Showa University, Japan. The HGF, HPC and HPLF cells were prepared from human periodontal tissue after obtaining informed consent according to the guidelines of Meikai University Ethics Committee, Japan (No. 0206). Since normal cells have a short lifespan, cells at the 3-7 population doubling time were used. With the exception of the HL-60 neoplasm, the cells were cultured in DMEM containing heat-inactivated FBS (10%) at 37° C. in a humidified carbon dioxide atmosphere and subcultured by trypsinization. The HL-60 cells were cultured in a similar fashion except that RPMI 1640 media was employed.
# [5] = tested on: human squamous cell carcinomas HSC-4; test: Cytotoxicity CC50, MTT assay, HSC-4
# Procedure: as §1, §2
# [6] = tested on: human promyelocytic leukemia HL-60; test: Cytotoxicity CC50, trypan blue exclusion, HL-60
# Procedure: as §1, §2
# [7] = tested on: HGF, HPC and HPLF cells versus HSC-2, HSC-4 and HL-60 neoplasms; test: Selectivity index, normal versus malignant cells; format: cell-based, human; conditions: average CC50 of HGF, HPLF divided by average CC50 of HSC-2, HSC-4, HL-60
# Procedure: as §1, §2
# human tumour cell lines = test: Panel of human tumour cell lines, all cell lines (mean graph midpoint); format: cell-based; conditions: for pIC50: mean graph midpoint, average of 49 (38-59) human tumour cell lines, 48 h incubation, read-out: All cell lines IC50
# Procedure: A number of compounds of the invention were further assessed against numerous human malignant cell lines. An average of 49 cell lines from nine different neoplastic diseases, namely leukemia, melanoma, non-small cell lung, colon, central nervous system, ovarian, renal, prostate, and breast cancers were employed.
# (§3) In addition, both 5-fluorouracil and melphalan were evaluated towards 57 cell lines. […] MG MID is the average of the potencies of the compound to approximately 50 neoplastic cell lines.
# COLO 205 = test: Human tumour cell line panel, colon cancer COLO 205; format: cell-based; conditions: read-out: Colon cancer cells, IC50(μM) COLO 205
# Procedure: as §3
# HCT 116 = test: Human tumour cell line panel, colon cancer HCT 116; format: cell-based; conditions: read-out: Colon cancer cells, IC50(μM) HCT 116
# Procedure: as §3
# HCT 15 = test: Human tumour cell line panel, colon cancer HCT 15; format: cell-based; conditions: read-out: Colon cancer cells, IC50(μM) HCT 15
# Procedure: as §3
# KM 12 = test: Human tumour cell line panel, colon cancer KM 12; format: cell-based; conditions: read-out: Colon cancer cells, IC50(μM) KM 12
# Procedure: as §3
# SW 620 = test: Human tumour cell line panel, colon cancer SW 620; format: cell-based; conditions: read-out: Colon cancer cells, IC50(μM) SW 620
# Procedure: as §3
# HCC 2998 = test: Human tumour cell line panel, colon cancer HCC 2998; format: cell-based; conditions: read-out: Colon cancer cells, IC50(μM) HCC 2998
# Procedure: as §3
# K 562 = test: Human tumour cell line panel, leukemic K 562; format: cell-based; conditions: read-out: Leukemic cells, IC50(μM) K 562
# Procedure: as §3
# RPMI 8226 = test: Human tumour cell line panel, leukemic RPMI 8226; format: cell-based; conditions: read-out: Leukemic cells, IC50(μM) RPMI 8226
# Procedure: as §3
# HL 60 = test: Human tumour cell line panel, leukemic HL 60; format: cell-based; conditions: read-out: Leukemic cells, IC50(μM) HL 60
# Procedure: as §3
# SR = test: Human tumour cell line panel, leukemic SR; format: cell-based; conditions: 48 h, read-out: Leukemic cells, IC50(μM) SR
# Procedure: as §3
# in vitro [8] = conditions: human
# Procedure: as §1, §2
# in vitro [9] = conditions: human; remark: listed apart in the source
# Procedure: as §1, §2
# in vitro [10] = conditions: human; remark: listed apart in the source
# Procedure: as §1, §2
# [11] = tested on: human gingival fibroblasts (HGF); test: in vitro
# Procedure: as §1, §2
# human pulp cells (HPC) = test: in vitro
# Procedure: as §1, §2
# [12] = tested on: human periodontal ligament fibroblasts (HPLF); test: in vitro
# Procedure: as §1, §2
# [13] = tested on: HSC-2, HSC-4 and HL-60 malignant cells; test: Average CC50 for malignant cells
# Procedure: as §1, §2
# [14] = Homo sapiens, HSC-2, 24 h, read-out: CC50(μM) HSC-2
# [15] = Homo sapiens, HSC-4, 24 h, read-out: CC50(μM) HSC-4
# [16] = Homo sapiens, HL-60, 24 h, read-out: CC50(μM) HL-60
structure (smiles),measurement,setting,value
O=C1C(=Cc2ccccc2)CNCC1=Cc1ccccc1 [Compound B1],Fatalities in mice,mice,did not induce fatalities
same,Cytotoxic activity,[1],possesses cytotoxic activity
same,Binding to poly(d(AT)),[2],does bind
"COc1ccc(C(=O)N2CC(=Cc3ccccc3)C(=O)C(=Cc3ccccc3)C2)cc1 [Compound 2b, 1-(4-Methoxybenzoyl)-3,5-bis(phenylmethylene)-4-piperidone]",melting point,,177 to 178 °C
CCN(CC)CCOc1ccc(C(=O)O)cc1.Cl,melting point,,170 to 172 °C
"CCN(CC)CCOc1ccc(C(=O)N2CC(=Cc3ccc(C)cc3)C(=O)C(=Cc3ccc(C)cc3)C2)cc1.Cl [Compound 4d, 1-[4-(2-Diethylaminoethoxy)phenylcarbonyl]-3,5-bis(4-methylphenylmethylene)-4-piperidone hydrochloride]",FAR value 4 μg/ml,[3],106
same,FAR value 40 μg/ml,[3],66.6
same,CC50,[4]; [14],2.2 µM
same,CC50,[5]; [15],2.3 µM
same,CC50,[6]; [16],0.79 µM
same,SI (selectivity index),[7],3.3
"O=C1C(=Cc2ccccc2)CN(C(=O)c2ccccc2)CC1=Cc1ccccc1 [Compound 2a, 1-Benzoyl-3,5-bis(phenylmethylene)-4-piperidone]",melting point,,165 to 166 °C
"Cc1ccc(C=C2CNCC(=Cc3ccc(C)cc3)C2=O)cc1 [Compound 1d, 3,5-bis(4-Methylphenylmethylene)-4-piperidone]",FAR value 4 μg/ml,[3],3.26
same,FAR value 40 μg/ml,[3],4.03
same,CC50,[4]; [14],3.9 µM
same,CC50,[5]; [15],9.3 µM
same,CC50,[6]; [16],4.5 µM
same,SI (selectivity index),[7],29
"Cl.O=C1C(=Cc2ccc(Cl)cc2)CN(C(=O)c2ccc(OCCN3CCCCC3)cc2)CC1=Cc1ccc(Cl)cc1 [Compound 5b, 3,5-bis(4-Chlorophenylmethylene)-1-[4-{2-(1-piperidinyl)ethoxy}phenylcarbonyl]-4-piperidone hydrochloride]",pIC50,human tumour cell lines,< 4.94
same,S.I. (selectivity index),human tumour cell lines; ratio of the IC50 figures for the least and most sensitive cell lines,>66.1
same,IC50,"COLO 205; Homo sapiens, COLO 205, 48 h",15.8 µM
same,IC50,"HCT 116; Homo sapiens, HCT-116, 48 h",47.9 µM
same,IC50,"HCT 15; Homo sapiens, HCT-15, 48 h",49 µM
same,IC50,"KM 12; Homo sapiens, KM12, 48 h",19.1 µM
same,IC50,"SW 620; Homo sapiens, SW-620, 48 h",3.55 µM
same,IC50,"HCC 2998; Homo sapiens, HCC 2998, 48 h",1.58 µM
same,IC50,"K 562; Homo sapiens, K562, 48 h",4.37 µM
same,IC50,"RPMI 8226; Homo sapiens, RPMI-8226, 48 h",0.759 µM
same,IC50,"HL 60; Homo sapiens, HL-60, 48 h",20.4 µM
same,IC50,"SR; Homo sapiens, SR",2.29 µM
same,FAR value 4 μg/ml,[3],157
same,FAR value 40 μg/ml,[3],133
same,CC50,[4]; [14],110 µM
same,CC50,[5]; [15],48 µM
same,CC50,[6]; [16],63 µM
same,CC50 at 24 h,in vitro [8],> 400 µM
same,CC50 at 24 h,in vitro [9],> 400 µM
same,CC50 at 24 h,in vitro [10],340 µM
same,SI (selectivity index),[7],>5.2
"CCN(CC)CCOc1ccc(C(=O)N2CC(=Cc3ccc(Cl)cc3)C(=O)C(=Cc3ccc(Cl)cc3)C2)cc1.Cl [Compound 4b, 3,5-bis(4-Chlorophenylmethylene)-1-[4-(2-diethylaminoethoxy)phenylcarbonyl]-4-piperidone hydrochloride]",FAR value 4 μg/ml,[3],118
same,FAR value 40 μg/ml,[3],99.7
same,CC50,[4]; [14],160 µM
same,CC50,[5]; [15],34 µM
same,CC50,[6]; [16],46 µM
same,CC50 at 24 h,in vitro [8],230 µM
same,CC50 at 24 h,in vitro [9],> 400 µM
same,CC50 at 24 h,in vitro [10],> 400 µM
same,SI (selectivity index),[7],>4.3
O=C1C(=Cc2ccccc2)CNCC1=Cc1ccccc1 [Compound 1a],pIC50,human tumour cell lines,5.79
same,IC50,COLO 205; 48 h,1.55 µM
same,IC50,HCT 116; 48 h,0.182 µM
same,IC50,HCT 15; 48 h,0.631 µM
same,IC50,KM 12; 48 h,0.794 µM
same,IC50,SW 620; 48 h,0.575 µM
same,IC50,HCC 2998; 48 h,2 µM
same,IC50,K 562; 48 h,0.49 µM
same,IC50,RPMI 8226; 48 h,0.275 µM
same,IC50,HL 60; 48 h,0.363 µM
same,IC50,SR,0.209 µM
same,FAR value 4 μg/ml,[3],1.58
same,FAR value 40 μg/ml,[3],2.00
same,CC50,[4],2.2 µM
same,CC50,[5],4.4 µM
same,CC50,[6],1.5 µM
same,CC50,[11],20 µM
same,CC50,human pulp cells (HPC),38 µM
same,CC50,[12],24 µM
same,CC50(μM) ave,[13],2.7 µM
"CC[N+](C)(CC)CCOc1ccc(C(=O)N2CC(=Cc3ccccc3)C(=O)C(=Cc3ccccc3)C2)cc1.[I-] [Compound 7a, 1-[4-(2-Diethylaminoethoxy)phenylcarbonyl]-3,5-bis(phenylmethylene)-4-piperidone methoiodide]",pIC50,human tumour cell lines,< 4.38
same,IC50,COLO 205; 48 h,20.4 µM
same,IC50,HCT 116; 48 h,> 50.1 µM
same,IC50,HCT 15; 48 h,> 50.1 µM
same,IC50,KM 12; 48 h,43.7 µM
same,IC50,SW 620; 48 h,30.2 µM
same,IC50,HCC 2998; 48 h,28.2 µM
same,IC50,K 562; 48 h,43.7 µM
same,IC50,RPMI 8226; 48 h,17.4 µM
same,IC50,HL 60; 48 h,> 50.1 µM
same,IC50,SR,38 µM
same,FAR value 4 μg/ml,[3],1.37
same,FAR value 40 μg/ml,[3],1.05
same,CC50,[4],130 µM
same,CC50,[5],82 µM
same,CC50,[6],82 µM
same,CC50,[11],160 µM
same,CC50,human pulp cells (HPC),170 µM
same,CC50,[12],79 µM
same,CC50(μM) ave,[13],98 µM
"CCN(CC)CCOc1ccc(C(=O)N2CC(=Cc3ccc([N+](=O)[O-])cc3)C(=O)C(=Cc3ccc([N+](=O)[O-])cc3)C2)cc1.Cl [Compound 4c, 1-[4-(2-Diethylaminoethoxy)phenylcarbonyl]-3,5-bis(4-nitrophenylmethylene)-4-piperidone hydrochloride]",FAR value 4 μg/ml,[3],77.5
same,FAR value 40 μg/ml,[3],14.1
same,CC50,[4]; [14],0.98 µM
same,CC50,[5]; [15],1.1 µM
same,CC50,[6]; [16],0.26 µM
same,SI (selectivity index),[7],6.6
